The source of these data is US6194451A, “Matrix metalloproteinase inhibitors” (Pharmacia & Upjohn S.p.A., priority 1997, dated 2001).

A word on the Ki: it is the dissociation constant of the complex between target and ligand, obtained from inhibition or displacement. As a reminder, the AUC is concentration integrated over time. A high value points to more exposure.

Data set [1] has as its target T1, MMP-3 (human stromelysin-1) (Homo sapiens, UniProt P08254).
T1 construct: host or cells: E. coli or baculovirus-infected Sf9 insect cells
The experiment in a line: Biochemical Assay (Protocol A): inhibition of human stromelysin-1, fluorimetric peptide substrate. The note with it: MMP-3, pH 7.4, 37° C. The text has this: (§1) As mentioned above, although low molecular weight MMP inhibitors, including hydroxamates of general formula (A), are already known, there is a strong need for better and diversified molecules for their use in medicine, that is in particular in the control or prevention of degenerative joint diseases such as rheumatoid arthritis and osteoarthritis, or in the management of multiple sclerosis, or in the treatment of invasive tumors. […] For example, the following protocol was used to assess the biochemical activity of compounds of formula (I) against MMP-1, MMP-2, and MMP-3 (respectively, human interstitial collagenase, gelatinase A, and stromelysin-1).
(§2) Human gelatinase-A (MMP-2) was obtained as pro-enzyme (72 kDa) and was activated with 1 mM 4-aminophenylmercuric acetate for 30 min at 37° C. immediately prior to use. Human stromelysin-1 (MMP-3) was obtained as a recombinant pro-enzyme isolated either from E. coli or from baculovirus infected Sf9 insect cells and activated either by heat (1 h, 55° C.) or by 5 mg/l trypsin (30 min, 37° C.) before addition of soybean trypsin inhibitor, finally removed by centrifugation.
(§3) All enzyme assays to determine values of the enzyme-inhibitor dissociation constants were performed using the peptide substrate (7-methoxycoumarin-4-yl)Acetyl-Pro-Leu-Gly-Leu-(3-[2,4-dinitrophenyl]-L-2,3-diaminopropionyl)-Ala-Arg-NH2 (Mca-Pro-Leu-Gly-Leu-Dpa-Ala-Arg--NH2) (C. G. Knight et al., FEBS Lett. 296:263-266, 1992). The enzymes cleave at the Gly-Leu bond removing the internally quenching Dpa group. The release of the highly fluorescent peptide Mca-Pro-Leu was followed fluorimetrically setting the excitation wavelength at 326 nm (bandwidth 5 nm) and the emission at 392 nm (bandwidth 20 nm).
(§4) Continuous fluorescence assay was carried out using a Perkin Elmer LS-50 Fluorescence Spectrophotometer fitted with a thermostatted four position stirring cell changer. Inhibitors were dissolved in the assay buffer ([…] Tris/HCl pH 7.4 containing 0.15 M NaCl, 10 mM CaCl2, 0.01 mM ZnCl2 and 0.05% Brij 35) thermostatted at 37° C. The reaction was started by the addition of substrate ([…]), followed by the addition of the enzyme (e.g. 1.0 nM collagenase, 0.04 nM gelatinase, or 3.0 nM stromelysin) and the increase in fluorescence was monitored over 30 min. The run was repeated at different concentrations of inhibitors in the range 0.1-10000 nM and data at inhibitor concentration in the region if their enzyme-inhibitor dissociation constants were used for calculation.
(§5) Substrate consumption was within 5% of the initial concentration and data outside this range were discarded. The Michaelis constants (Km) for the enzyme-substrate complexes is […] or greater (C. G. Knight et al., reference above), so that the factor (1+S/Km) can be approximated to unity without appreciable error.

A short description of data set [2]: Pharmacokinetic Assay (Protocol C): plasma levels after i.v. and oral administration to rats. It is filed as in vivo, rat (male Sprague-Dawley). To be noted: 15 mg/kg. Here is the method: Male rats (Sprague-Dawley; body weight about 250-300 g) were acclimatized for about one week before the start of the study. […] Before treatment, rats were overnight fasted. For each compound to be assessed, three rats were treated intravenously (injection in the tail vein as a bolus) with a single dose of 15 mg/kg (as free base or free acid if needed) body weight. Other three rats were treated orally (single bolus dose by gastric gavage) with 15 mg/kg of the same compound. In same cases, according to the detection limit of each particular compound, and its availability in stock, these standard doses were modified as needed.
Blood samples were collected into syringes especially prepared for use with the cannulated animals via the SCV cannula. Under standard conditions, blood samples (0.2 mL) were transferred into heparinized tubes at the following times: 0 (pre-dose), 2, 4, 8, 16, 30, 45, 60, 90 min, 2, 4, 6, 8 and 24 h after iv administration; 0 (pre-dose), 5, 10, 30, 45, 60, 90 min, 2, 4, 6, 8, and 24 h after oral administration. Plasma was obtained immediately by centrifugation (about 10,000 rpm for 3 min) and stored at -80° C. till analysis. Plasma samples were assayed for parent drug concentrations using an appropriate analytical method. Under standard conditions, liquid chromatography--tandem mass spectrometry (LC/MS-MS) was used.
Non-compartmental pharmacokinetic calculations were performed with the aid of Pharm-NCA package (SIMED, France). Maximum plasma concentration, Cmax, and the corresponding time, tmax, were read as the coordinates of the highest raw-data point for individual plasma profiles. Terminal phase was evaluated by graphic judgement by eye; terminal rate constant, was calculated as the slope of the terminal linear portion of natural log-transformed plasma concentrations vs. time curve, obtained using linear regression. Terminal half-life, t1/2,z, was calculated as ln(2)/lz. The area under the plasma concentration-time curve was estimated by the linear trapezoidal rule up to the last measured concentration (AUC(0-tz)) and extrapolated to infinity assuming monoexponential decay, using the formula AUC=AUC(0-tz)+C(tz)/lz, where C(tz) is the measured concentration of the last point with detectable concentration. Following iv dosing, systemic clearance was obtained using the formula Cl=Dose/AUC. According to Protocol C, the pharmacokinetic in rats of some representative compounds within the present invention was evaluated. Significant pharmacokinetic data obtained in rats at a 15 mg/kg dose were as follows: […]

Data set [3] deals with Human DU145 Prostatic Carcinoma cells. Nature of the data set: Antitumor Efficacy Assay (Protocol D): DU145 tumor growth inhibition in Balb nu/nu mice. Type of data set: in vivo, human tumor in Balb nu/nu mice. To be noted: 100 mg/kg b.i.d., i.p., day +1 to day +20; p<0.01, Dunnett method. The text has this: The novel compounds of formula (I) can be used in a method of treatment of the human or animal body by therapy. The condition of a human or animal patient may thus be improved. In particular, compounds the present invention can be used to limit the local growth of established tumors, and to limit growth of secondary metastases. The following protocol was used to evaluate the antitumoral efficacy in vivo of the compounds of the present invention:
Human DU145 Prostatic Carcinoma cells (2×10^6) were injected subcutaneously at day 0 in Balb nu/nu mice. Treatment with inhibitor (i.p. injection) started at day +1 and terminated at day +20. Animal were sacrificed at day +21, and the tumors exised and weighted. Percent tumor growth inhibition vs. control mice (% TGI) was calculated as follows:
% TGI=100-(Mean Tumor Weight in treated group)/(Mean Tumor Weight in […]

Data set [4] deals with T2, MMP-2 (human gelatinase A) (Homo sapiens, UniProt P08253).
T2 sequence (P08253 110-660): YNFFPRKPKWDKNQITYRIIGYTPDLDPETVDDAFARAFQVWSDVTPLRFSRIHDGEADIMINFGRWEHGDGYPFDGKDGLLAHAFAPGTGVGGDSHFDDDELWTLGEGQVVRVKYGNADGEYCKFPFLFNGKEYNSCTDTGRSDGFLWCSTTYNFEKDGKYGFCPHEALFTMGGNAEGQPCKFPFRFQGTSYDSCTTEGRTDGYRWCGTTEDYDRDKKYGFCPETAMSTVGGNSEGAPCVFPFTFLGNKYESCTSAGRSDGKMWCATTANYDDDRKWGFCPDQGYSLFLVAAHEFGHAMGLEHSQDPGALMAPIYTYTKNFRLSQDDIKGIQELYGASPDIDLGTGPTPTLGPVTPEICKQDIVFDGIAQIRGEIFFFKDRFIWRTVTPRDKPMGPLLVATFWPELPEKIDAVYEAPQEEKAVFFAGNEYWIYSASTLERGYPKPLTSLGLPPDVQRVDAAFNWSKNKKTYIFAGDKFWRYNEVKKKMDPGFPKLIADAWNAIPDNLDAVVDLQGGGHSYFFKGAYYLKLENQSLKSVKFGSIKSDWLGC
Nature of the data set: Biochemical Assay (Protocol A): inhibition of human gelatinase A, fluorimetric peptide substrate. The note with it: MMP-2, pH 7.4, 37° C.
Excerpt: as §1, §2, §3, §4, §5

The target of data set [5] is T3, MMP-1 (human interstitial collagenase) (Homo sapiens, UniProt P03956).
T3 construct: truncated recombinant enzyme encompassing residues 101-269
T3 sequence (P03956 101-269): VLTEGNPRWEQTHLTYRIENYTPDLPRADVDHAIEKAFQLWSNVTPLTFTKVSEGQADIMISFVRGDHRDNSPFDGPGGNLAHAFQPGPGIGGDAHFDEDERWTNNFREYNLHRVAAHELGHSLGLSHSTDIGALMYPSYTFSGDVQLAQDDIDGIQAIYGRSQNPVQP
Nature of the data set: Biochemical Assay (Protocol A): inhibition of human collagenase, fluorimetric peptide substrate. To be noted: MMP-1, pH 7.4, 37° C.
Excerpt: as §1, §2, §3, §4, §5

T1 sequence (P08254 100-477): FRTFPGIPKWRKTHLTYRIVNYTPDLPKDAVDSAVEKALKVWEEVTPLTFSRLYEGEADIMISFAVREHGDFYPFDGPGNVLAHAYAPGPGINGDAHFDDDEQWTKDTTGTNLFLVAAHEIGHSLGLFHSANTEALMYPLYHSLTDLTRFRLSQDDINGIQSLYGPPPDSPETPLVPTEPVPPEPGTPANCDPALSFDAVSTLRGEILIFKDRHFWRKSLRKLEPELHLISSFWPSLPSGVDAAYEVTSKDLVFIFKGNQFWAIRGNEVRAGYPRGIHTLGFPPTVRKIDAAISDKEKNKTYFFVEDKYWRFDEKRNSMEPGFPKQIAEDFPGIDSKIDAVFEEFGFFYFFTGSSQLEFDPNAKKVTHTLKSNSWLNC

For the compound `CNC(=O)[C@@H](NC(=O)[C@H](CC(C)C)[C@](O)(COC(=O)NC1CCCCC1)C(=O)NO)C(C)(C)C` [Example 16, [(2R,3S)-3-(N-Cyclohexylaminocarbonyl)oxymethyl-3-hydroxy-4-hydroxyamino-2-isobutylsuccinyl]-L-tert-leucine-N-methylamide], the Ki is 23 nM in data set [1], 3.2 nM in data set [4] and 1.5 nM in data set [5]. Besides, the “plasma clearance compared with literature hydroxamic acid MMP inhibitors” value in data set [2] (to our best knowledge) is on record as “inferior to that reported for any hydroxamic acid MMP inhibitor disclosed in the literature”. The compound further gave an AUC iv in data set [2] (iv) of 1.35 mg·min/mL. Moreover, the half-life in data set [2] (rat, plasma, terminal half-life, read-out: t1/2,z (converted)) is 2.3 h. In addition, in data set [2] (rat, plasma, iv), the clearance turned out to be 0.66 L/h/kg. The AUC in data set [2] (rat, plasma, oral) was 1.33 µg·h/mL. Further, the “TGI (percent tumor growth inhibition vs. control)” value in data set [3] is given as 83%.
